Data: US20200179308A1, “USE OF ISOHUMULONES AND DERIVATIVES THEREOF TO TREAT POLYCYSTIC OVARY SYNDROME” (KINDEX PHARMACEUTICALS, INC., priority 2017, published 2020)
“And” between values parts separate entries of the source, which are not always exact repeats. Equal values may be shown once. “Also recorded” adds a separate entry of the source.

Columns and labels:
Format in all cases: in vivo
DIO female mice [1] = test: Estrous cyclicity by vaginal cytology over 15 consecutive days; conditions: for percent of mice acyclic (did not complete even 1 complete estrous cycle): 15 day period beginning 10 days after treatment
Experimental: Diet-induced obesity has been reported to impair estrous cyclicity in female mice (Brothers et al., Wu et al.). In these studies, DIO females were treated with KDT501, PIO or VEH beginning 8 weeks after change to high fat diet. Mice were assessed for estrous cycle stage for 15 consecutive days beginning 10 days after drug/VEH treatment. Vaginal cytology was assessed daily between 9 and 10 am for 15 consecutive days beginning the 10th days after drug treatment. Vaginal cells were collected via saline lavage and then fixed with 100% ethanol and stained with the DIFF Quick Stain Kit (IMEB Inc., San Marcos, Calif., USA). Stages were assessed based on vaginal cytology (Nelson et al. 1982): predominant cornified epithelium indicated the estrus stage, predominant nucleated cells indicated the proestrus stage, both cornified and leukocytes indicated the metestrus stage, and predominant leukocytes indicated the diestrus stage. The percentage of mice at each different cycle stage in each group was calculated.

DIO female mice [2] = test: Insulin tolerance test (ITT), whole body insulin sensitivity
Experimental: (§1) To begin to assess the effects of drug treatment on glucose metabolism in female DIO mice, IP-glucose tolerance test (IP-GTT) was performed. One month after drug treatment, mice were tested for glucose tolerance by IP-GTT. The mice were fasted overnight for 16 hours, blood was drawn through the tail vein and baseline blood glucose was measured using a OneTouch Ultra glucometer. 20% dextrose was injected IP (2 g/kg body weight). Sample blood glucose was measured at 15, 30, 60, 90 and 120 minutes. One week after IP-GTT, the mice were tested for whole body insulin sensitivity by insulin tolerance test (ITT). Mice were fasted for seven hours, blood was drawn through the tail vein and baseline blood glucose was measured as above. 0.3 units/kg insulin was injected IP. Blood glucose of each mouse were measured at 15, 30, 60, 90 and 120 minutes. Area under the curve (AUC) was calculated for both the IP-GTT and the ITT.

DIO female mice [3] = test: Fasting serum insulin, leptin and IL-6 by Luminex assay; conditions: between VEH, KDT501 and PIO groups
Experimental: (§2) To measure serum levels of LH, FSH, insulin, and leptin, serum samples were collected from mice via mandibular bleed. Mice were fasted overnight, and insulin or saline was injected IP according to the body weight of the mice (0.3 units/kg). Samples were obtained between 9:00 and 10:00 am on diestrus for baseline LH and FSH so as to avoid cycle dependent LH surges that occur in the late afternoon on the evening of proestrus. Rodent morning LH levels are not thought to vary in a cycle dependent manner (Helena et al. 2006). For fasting measurements of insulin, samples were also obtained between 9:00 and 10:00 am. Tissues were collected 10 minutes after insulin injection and snap-frozen in liquid nitrogen. Protein was obtained and measured as described previously (Brothers et al. 2010). To quantify the levels of phosphorylated AKT (pAKT), and AKT for different tissues of each individual animal after insulin or saline injection, Bio-Plex Phosphoprotein Detection Multiplex assays were used (Bio-Rad Laboratories, Hercules, Calif.). Protein ([…]) from each tissue was loaded into a 96-well microplate. Assays were conducted using the Luminex 200 system. Values were assessed as mean fluorescent intensity of phospho-specific signal. Serum was analyzed on a Luminex 20015 platform using the Milliplex Map mouse pituitary panel (LH/FSH) and a Milliplex mouse metabolic panel (insulin/leptin; Millipore, Billerica, Mass., USA). The assay detection limit for LH was 0.0019 ng/mL; for FSH, 0.0095 ng/mL; for insulin, 13.0 pg/mL; and for leptin, 4.2 pg/mL. Serum Testosterone was measured by radioimmunoassay at the University of Virginia Ligand Assay Core.

DIO female mice [4] = test: Liver lipid accumulation, H&E staining quantified with ImageJ
Experimental: Liver tissues were collected and placed immediately in 10% formalin. 5 μm sections of tissue were stained with H&E by the Johns Hopkins Molecular and Comparative Pathobiology Phenotyping Core. Quantification of the area of fat in liver tissue was measured with NIH imageJ software and compared across groups.

DIO female mice [5] = test: Serum pituitary gonadotropin (LH, FSH) levels, Luminex Milliplex mouse pituitary panel; conditions: KDT501 100 mg/kg, PIO 30 mg/kg oral once a day, compared to VEH
Experimental: as §2

DIO female mice [6] = test: IP-glucose tolerance test (IP-GTT); conditions: one month after drug treatment, relative to VEH
Experimental: as §1

[7] = Weight gain on high fat diet in DIO female mice; conditions: female mice on 60% HFD; oral once a day; KDT501 100 mg/kg, PIO 30 mg/kg; compared to VEH
From the text: To generate DIO mice, 7 week old female mice on a mixed strain background (129SvJ, C57B16, CD1) were placed and maintained on a high fat diet (HFD) for 8 weeks prior to study and throughout the course of study. The high fat diet consisted of 60% Kcal from fat with an energy density of 5.24 kcal/gm (D12492, Research Diets, Inc., New Brunswick, N.J., USA).
Wood chip bedding was maintained in these cages so that mice would not supplement their diet by eating the standard corncob bedding. Mice were weighed every week. The regular chow diet (Tekland Global 18% protein diet) was 24% Kcal from protein, 58% Kcal from carbohydrate, and 18% Kcal from fat with an energy density of 3.1 kcal/g (Harlan Laboratories, Indianapolis, Ind., USA). All procedures were performed with approval by the Johns Hopkins Animal Care and Use Committee under standard light and dark cycles.
At 80 days after introduction to high fat diet, the test compounds were administered orally to the mice once a day. […]
Female mice fed a high fat diet (60% calories from fat) gained approximately 4 grams of weight during the 8 week study period (FIG. 1). […] All data were analyzed with using Prism Software 5 GraphPad Software (La Jolla, CA) and are expressed as means ±SEM. Significance was determined via unpaired two- tailed Student t-test, one- or two-way ANOVA with the appropriate post-hoc tests. […]

[8] = 15 day period, KDT501 100 mg/kg, PIO 30 mg/kg

Compound | percent of mice acyclic (did not complete even 1 complete estrous cycle) (DIO female mice [1]; KDT501 100 mg/kg, PIO 30 mg/kg) [%] | percentage of mice that completed 3 complete estrous cycles (DIO female mice [1]; [8]) | percentage of mice that had (at least) two complete estrous cycles (DIO female mice [1]; [8]) | insulin sensitivity, ITT area under the curve (AUC) (DIO female mice [2]; 0.3 units/kg insulin IP, relative to VEH) | fasting glucose levels (7 hrs fasting) (DIO female mice [2]; before insulin injection, compared to VEH controls) | percentage of mice that had one complete estrous cycle (DIO female mice [1]; [8]) | number of complete estrous cycles per mouse (DIO female mice [1]; 15 days of analysis, compared to VEH) | fasting serum IL-6 level (DIO female mice [3]) | fasting serum insulin level (DIO female mice [3]) | fasting serum leptin level (DIO female mice [3]) | fat / lipid accumulation in liver, KDT501 versus PIO (DIO female mice [4]; KDT501 100 mg/kg compared to PIO 30 mg/kg) | fat / lipid accumulation in liver (DIO female mice [4]; KDT501 100 mg/kg, PIO 30 mg/kg, relative to VEH) | morning serum FSH level (DIO female mice [5]) | morning serum LH level (DIO female mice [5]) | ratio of LH/FSH (DIO female mice [5]) | glucose tolerance (blood glucose after IP dextrose) (DIO female mice [6]; 16 h fast, 2 g/kg dextrose IP) | glucose tolerance, IP-GTT area under the curve (AUC) (DIO female mice [6]) | weight gain (Δ weight from week 0) over the 8 week study period [7]
CCc1ccc(CCOc2ccc(CC3SC(=O)NC3=O)cc2)nc1 (stereo not drawn) [PIO, Pioglitazone, reference compound] | 20 | 21% and 28% | 25-28% |  |  |  |  |  |  |  |  |  |  |  |  |  |  | 
CC(C)CCC(=O)[C@@]1(O)C([O-])=C(C(=O)CC(C)C)C(=O)[C@@H]1CCC(C)C.[K+] [KDT501, Potassium salt of (+)-KDT500] | 7.1 | 20% | 60% | improved insulin sensitivity | lower fasting glucose levels | Roughly an even percentage | significantly more complete estrous cycles; also recorded: significant increase in number of cycles/mouse | not significantly different; also recorded: No significant differences | not significantly different; also recorded: No significant differences | not significantly different; also recorded: No significant differences | significantly less lipid accumulation; also recorded: significantly less fat | significantly less lipid accumulation; also recorded: significant reduction in fat | not significantly altered | not significantly altered | no significant difference | improved glucose tolerance | significant improvement in glucose tolerance | no weight gain; also recorded: attenuated weight gain
